The values below come from EP1379634B1 (THE UNIVERSITY OF GEORGIA RESEARCH FOUNDATION, INC., priority 2001, dated 2002).

What is called % inhibition is the relative decrease from the control value, in per cent. Lower therefore signals a response near the control.

Common to all, as to assay type: biochemical
One assay addresses Cathepsin L (Homo sapiens, UniProt P07711). The assay is described as follows: Selectivity test (Steps VI and IX), Cathepsin L. Particulars: pH 5.5, substrate Z-FR-AFC. The procedure: In order to perform the assay, the vehicle (for Step VI) or inhibitor (for Step IX) were incubated with the appropriate substrate in the correct assay buffer and allowed to equilibrate. Subsequently, the protease was added, and the assay was allowed to incubate for an appropriate time. The concentrations used in this experiment were as follows: Vehicle was set up at 4 X 10^-5 M in final assay buffer; Inhibitor was set up at 3 X 10^-10 M in the final assay buffer. Preferably the dosages employed should be the minimal amount of vehicle or inhibitor necessary to induce inhibition. […] Substrates were set up based upon the preferred substrate for cleavage of the particular enzyme.
Positive controls were set up similarly as described for test controls, except that a solvent blank was added in substitution for the inhibitor or vehicle (in a volume equal to the volume of inhibitor or vehicle addition). All of the inhibitors and vehicles could be dissolved in dimethylsulfoxide (DMSO), and therefore, this was the solvent of choice. Negative controls were set up by adding the inhibitor or vehicle and the preferred substrates in a tube without the protease. All potential non-proteolytic liberation of AFC was therefore controlled for in this tube.
All controls were set up in triplicate, and experiments were repeated a minimum of five times.
Percent inhibition was calculated as: %Inhibition = ((AFC positive for "SI"−AFC negative for "SI")−(AFC test−AFC negative for "SI"))/(AFC positive for "SI"−AFC negative for "SI") × 100 [formula]
In this preliminary test, we employed the following human-derived enzymes (with indicated mechanistic class in parentheses): Cathepsin B (cysteine), Cathepsin L (cysteine), Cathepsin H (cysteine), Cathepsin D (aspartic), Trypsin (serine), the purified Taenia solium cysteine protease, and the Taenia solium crude mix. Cathepsin B was prepared in an assay buffer of 10 mM L-cysteine in 0.4 M Citrate buffer, pH 6.1, using Z-ARR-AFC as the cleavage substrate. Cathepsin L was prepared in an assay buffer of 10 mM L-cysteine in 0.4 M Citrate buffer, pH 5.5, using Z-FR-AFC as the cleavage substrate. Cathepsin H was prepared in an assay buffer of 10 mM L-cysteine in 0.15 M PBS buffer, pH 6.8, using L-R-AFC as the cleavage substrate. Cathepsin D was prepared in an assay buffer of 0.15 M PBS, pH 7.1, using Z-RGFFP-AFC as the cleavage substrate. Trypsin was prepared in an assay buffer of 0.15 M PBS, pH 8.0, supplemented with 100 mM CaCl2 and with Z-R-AFC as the cleavage substrate. Enzyme was incubated so that it was at least 50 times less than the concentration of substrate in order to insure saturating conditions.

The next assay relates to Taenia solium crude mix. Briefly: Competitor assay of vehicles against high Vmax substrate cocktails (Step III), crude mix. The source says:
Step III for a crude mix proceeds as it would for a purified protease, except that Vm is used instead of kcat.
One of the most intriguing findings in this experiment was that a highly similar inhibition pattern for the competitor assay resulted when the crude mix was employed as the source of the target protease. Although there were some variations in the effects of inhibitor dilution, the most highly ranked vehicles remained inhibitory consistently in comparison to the profile with the target protease. The relative profile and composition of the top tier of vehicles was identical. Z-LLL-AFC, Z-LLY-AFC, Mu-LY-AFC, Boc-VPR-AFC, Z-SY-AFC, Z-RR-AFC, Z-FLF-AFC, and Z-LGR-AFC consistently emerged as the top eight vehicles (Fig. 5b), respectively, based upon their V values (Table 2). […] It was notable that the three vehicles had very similar V values. […] As was mentioned, this vehicle along with Z-LLL-AFC and Z-LLY-AFC, were consistently the most inhibitory vehicles. The V values of the most inhibitory vehicle series are shown below in Table 2. Again, a clear break between the first and second tier vehicles is discernible for the V value. Table 2. Vehicles and V value rankings.

In assay [1] the test system is purified Taenia solium cysteine protease. The assay is described as follows: Substrate cleavage screen of AFC-linked peptides (Step II), purified protease. Particulars: 0.4 M Citrate, pH 4.9, 0.01 M cysteine, 18 h, 37 °C. The procedure:
In this step, the most efficacious substrate for detection of the cysteine protease (high Kcat substrate) was determined in vitro along with those substrates which were not well cleaved (low kcat substrates). From this point forward, the following conditions refer to all assays: "assay buffer" refers to 0.4 M Citrate, pH 4.9 (the pH optima of the protease). Incubation time was 18 hours at 37°C. These conditions were determined by our preliminary data to be best for kinetic evaluation of the protease. […] The experiments were conducted in 6X50 […] Borosilicate mini-culture tubes (Fisher Scientific), and a fluorometer (Turner) was employed for detection of AFC cleavage.
Since the full 8,420 amino acid possibilities for cleavage were not available, representative substrates were employed. […] In order to choose this subset, representative amino acids (i.e., selected from the categories of acidic, basic, nonpolar, uncharged) were chosen so as to create as many categories of motifs as feasible for the P3-P1 positions with a set of 67 small peptides (see lists at Fig. 4a and Fig. 4b). The target cysteine protease from Taenia solium was isolated using the purification methods described previously in the patent WO 00/63350.
Approximately 1 ug (or a proteolytically detectable amount) of the purified target cysteine protease was incubated individually, with 1 ug of each of the available substrates in 500 uL of assay buffer. During this setup, the substrate was pre-incubated in the assay buffer for a short period of time (20 minutes) in order to reach an equilibrated status before the addition of the protease. Cleavage assessments were based upon the property of the protease to cleave synthetic peptide substrates linked at the C-terminus to 7-Amino-4-Trifluoromethyl Coumarin (AFC) as previously described. AFC linked tripeptides, dipeptides, and monopeptides, (with a variety of permutations at P3-P1) were available from Enzyme Systems Products (Livermore, CA), and were used as the source of the subset. Following incubation of enzyme preparations overnight (18 h, 37 °C) with peptide in assay buffer (Citrate, pH 4.9, supplemented with 0.01 M cysteine), free AFC concentrations were measured fluorometrically (excitation 405 nm, emission 505 nm). The proteolytic cleavage released the AFC group, which was measurable as a free molecule by a standard fluorometer and converted into molar quantities, based upon a previously established standard curve. The simplicity of AFC detection by the fluorometer was a key factor which expedited and simplified the procedures.
In the assay, 1 ug of the purified Taenia cysteine protease was added to a saturating amount of Z-Phe-Arg-AFC (4X10^-5 M) in assay buffer. The experiment was conducted in triplicate and repeated at least 5 times until we were certain that variability in AFC cleavage was not statistically significant.
Vmax for the cleavage of substrates by the purified target protease and Vmax for substrates cleaved by the crude mix protease were each calculated using conventional kinetic modeling calculations already described in the art.

Residues, ends and D or L forms follow the SMILES beside them. *: point of attachment. AFC = O=c1cc(C(F)(F)F)c2ccc(N*)cc2o1; Cbz = O=C(OCc1ccccc1)*; CH2F = FC*

Chain of Cathepsin L (P07711 114-333): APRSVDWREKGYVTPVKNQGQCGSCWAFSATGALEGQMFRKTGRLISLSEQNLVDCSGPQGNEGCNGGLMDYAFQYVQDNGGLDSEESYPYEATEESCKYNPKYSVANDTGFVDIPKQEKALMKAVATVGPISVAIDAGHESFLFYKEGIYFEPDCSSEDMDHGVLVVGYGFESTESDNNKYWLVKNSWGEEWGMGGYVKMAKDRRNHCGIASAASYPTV

In the case of Mu-Leu-Tyr-AFC [Mu-LY-AFC], the “% inhibition” value on Cathepsin L (vehicle 4 X 10^-5 M) was 25%; at Cathepsin L (vehicle 4 X 10^-5 M, 40 µM), “subtle inhibition”. Further, the Tier in the assay on Taenia solium crude mix was 1 (The first tier was composed of those vehicles that produced inhibition greater than 50% when in the presence of the 1.4% cocktail). The “cleavage of AFC substrate (Vmax)” value in assay [1] is recorded as “not cleaved”; in assay [1] (listed as M-LY-AFC), “noncleavable”.
For the compound `CC(C)C[C@H](NC(=O)OCc1ccccc1)C(=O)N[C@@H](CC(C)C)C(=O)N[C@@H](Cc1ccc(O)cc1)C(=O)Nc1ccc2c(C(F)(F)F)cc(=O)oc2c1` [Z-LLY-AFC, Z-Leu-Leu-Tyr-AFC] (Cbz-Leu-Leu-Tyr-{AFC}), in the assay on Taenia solium crude mix, the Tier was 1 (The first tier was composed of those vehicles that produced inhibition greater than 50% when in the presence of the 1.4% cocktail). Further, the “cleavage of AFC substrate (Vmax)” value in assay [1] was “noncleavable”.
On to `CC(C)C[C@H](NC(=O)OCc1ccccc1)C(=O)N[C@@H](CC(C)C)C(=O)N[C@@H](CC(C)C)C(=O)Nc1ccc2c(C(F)(F)F)cc(=O)oc2c1` [Z-LLL-AFC, Z-Leu-Leu-Leu-AFC] (Cbz-Leu-Leu-Leu-{AFC}), for which the Tier with Taenia solium crude mix is listed as 1 (The first tier was composed of those vehicles that produced inhibition greater than 50% when in the presence of the 1.4% cocktail). Further, the “cleavage of AFC substrate (Vmax)” value in assay [1] is “noncleavable”.
In the case of `CC(C)C[C@H](NC(=O)OCc1ccccc1)C(=O)N[C@@H](CC(C)C)C(=O)N[C@@H](Cc1ccc(O)cc1)C(=O)CF` [Z-LLY-FMK, Z-Leu-Leu-Tyr-FMK] (Cbz-Leu-Leu-Tyr-CH2F), the “% inhibition” value on Cathepsin L (inhibitor 3 X 10^-10 M, 0.0003 µM) is “did not inhibit cathepsin L at all”.
